Source: patent US20080194524A1, “Compounds For the Inhibition of Undesired Cell Proliferation and Use Thereof” (JERINI AG, priority 2003, published 2008)

What follows are compounds tested against hPin1 (Protein interacting with NIMA (-kinase)) (Homo sapiens, UniProt Q13526) (assay: protease-coupled PPIase assay, hPin1). Conditions: not given.
Sequence of hPin1 (Protein interacting with NIMA (-kinase)) (Q13526 whole entry): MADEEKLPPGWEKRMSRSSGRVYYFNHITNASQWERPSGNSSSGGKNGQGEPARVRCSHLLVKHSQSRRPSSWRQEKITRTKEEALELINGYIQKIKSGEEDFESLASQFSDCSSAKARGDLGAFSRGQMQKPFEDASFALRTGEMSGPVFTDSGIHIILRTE
Format: biochemical
NC(=O)[C@H](Cc1ccc2ccccc2c1)NC(=O)[C@@H]1CCCCN1C(=O)[C@H](CSCP(=O)(O)O)NC(=O)C1CSC(=O)N1C(=O)C1CSC(=O)N1 (stereo partly drawn) [Compound 13, (3-[2-(1-Carbamoyl-2-naphthalen-2-yl-ethylcarbamoyl)-piperidin-1-yl]-3-oxo-2-{[2-oxo-3-(2-oxo-thiazolidine-4-carbonyl)-thiazolidine-4-carbonyl]-amino}-propylsulfanylmethyl)-phosphonicacid] showed an IC50 of less than 1000 nM. In the case of CC(=O)N[C@@H](Cc1csc2ccccc12)C(=O)N[C@@H](CSCP(=O)(O)O)C(=O)N1CCCC[C@H]1C(=O)N[C@@H](Cc1ccc2ccccc2c1)C(N)=O [Compound 2, {2-(2-Acetylamino-3-benzo[b]thiophen-3-yl-propionylamino)-3-[2-(1-carbamoyl-2-naphthalen-2-yl-ethylcarbamoyl)-piperidin-1-yl]-3-oxo-propylsulfanylmethyl}-phosphonic acid], the IC50 is reported as less than 1000 nM.

Same assay, conditions: hPin1 6 nM; substrate Ac-Ala-Ala-Ser(PO3H2)-Pro-Arg-pNA, trypsin; 35 mM HEPES pH 7.8, 6° C.; read-out: Specificity of the inhibition with rotamases, Target T-1 (IC50 class)
In the case of NC(=O)[C@H](Cc1ccc2ccccc2c1)NC(=O)[C@@H]1CCCCN1C(=O)[C@H](CSCP(=O)(O)O)NC(=O)OCCc1ccccc1 [Compound 47, {3-{2-(1-Carbamoyl-2-naphthalen-2-yl-ethylcarbamoyl)-piperidin-1-yl]-3-oxo-2-phenethyloxycarbonyl-aminopropylsulfanylmethyl}-phosphonic acid], the IC50 is reported as 1000 to 10000 nM. In the case of NC(=O)[C@H](Cc1ccc2ccccc2c1)NC(=O)[C@@H]1CCCCN1C(=O)[C@H](CSCP(=O)(O)O)NC(=O)Cc1ccc2c(c1)OCO2 [Compound 56, {2-(2-Benzo[1.3]dioxol-5-yl-acetylamino)-3-[2-(1-carbamoyl-2-naphthalen-2-yl-ethylcarbamoyl)-piperidin-1-yl]-3-oxo-propylsulfanylmethyl}-phosphonic acid], the IC50 is reported as less than 1000 nM. CC(SCP(=O)(O)O)C(=O)N1CCCC[C@H]1C(=O)N[C@@H](Cc1ccc2ccccc2c1)C(N)=O (stereo in doubt) [Compound 65, {2-[2-(1-Carbamoyl-2-naphthalen-2-yl-ethylcarbamoyl)-piperidin-1-yl]-1-methyl-2-oxo-ethylsulfanylmethyl}-phosphonicacid] showed an IC50 of 1000 to 10000 nM. O=C(Nc1ccccc1)[C@@H]1CCCCN1C(=O)CSCP(=O)(O)O [Compound 60, [2-Oxo-2-(2-phenylcarbamoyl-piperidin-1-yl)-ethylsulfanylmethyl]-phosphonicacid] gave an IC50 of 1000 to 10000 nM. Compound NC(=O)[C@H](Cc1ccc2ccccc2c1)NC(=O)[C@@H]1CCCCN1C(=O)[C@H](CSCP(=O)(O)O)NC(=O)C1(c2ccccc2)CCCC1 [Compound 33, {3-[2-(1-Carbamoyl-2-naphthalen-2-yl-ethylcarbamoyl)-piperidin-1-yl]-3-oxo-2-[(1-phenyl-cyclopentanecarbonyl)-amino]-propylsulfanylmethyl}-phosphonicacid] has an IC50 of 1000 to 10000 nM. Compound NC(=O)[C@H](Cc1ccc2ccccc2c1)NC(=O)[C@@H]1CCCCN1C(=O)[C@H](CSCP(=O)(O)O)NC(=O)CC1CCCCC1 [Compound 11, [3-[2-(1-Carbamoyl-2-naphthalen-2-yl-ethylcarbamoyl)-piperidin-1-yl]-2-(2-cyclohexyl-acetylamino)-3-oxo-propylsulfanylmethyl]-phosphonic acid] has an IC50 of 1000 to 10000 nM. NC(=O)[C@H](Cc1ccc2ccccc2c1)NC(=O)[C@@H]1CCCCN1C(=O)[C@H](CSCP(=O)(O)O)NC(=O)CCCC(=O)c1ccc(Cl)cc1 [Compound 7, {3-[2-(1-Carbamoyl-2-naphthalen-2-yl-ethylcarbamoyl)-piperidin-1-yl]-2-[5-(4-chloro-phenyl)-5-oxo-pentanoylamino]-3-oxo-propylsulfanylmethyl}-phosphonicacid] showed an IC50 of less than 1000 nM. In the case of NC(=O)[C@H](Cc1ccc2ccccc2c1)NC(=O)[C@@H]1CCCCN1C(=O)[C@H](CSCP(=O)(O)O)NS(=O)(=O)Cc1ccccc1 [Compound 32, {3-[2-(1-Carbamoyl-2-naphthalen-2-yl-ethylcarbamoyl)-piperidin-1-yl]-3-oxo-2-phenylmethane-sulfonylaminopropylsulfanyl-methyl}-phosphonic acid], the IC50 is reported as less than 1000 nM. Compound CC(=O)N[C@@H](Cc1csc2ccccc12)C(=O)N[C@@H](CSCP(=O)(O)O)C(=O)N(C)N(C)C(=O)N[C@@H](Cc1ccc2ccccc2c1)C(N)=O [Compound 26, Ac-Bta-Cys(CH2—P(O)(OH)2)-NMeazaAla-2Nal-NH2] has an IC50 of less than 1000 nM. O=C(NCCCc1ccccc1)[C@@H]1CCCCN1C(=O)CSCP(=O)(O)O [Compound 68, {2-Oxo-2-[2-(3-phenyl-propylcarbamoyl)-piperidin-1-yl]-ethylsulfanylmethyl}-phosphonicacid] was tested, and the IC50 was 1000 to 10000 nM. NC(=O)[C@H](Cc1ccc2ccccc2c1)NC(=O)[C@@H]1CCCCN1CCSCP(=O)(O)O [Compound 55, {2-[2-(1-Carbamoyl-2-naphthalen-2-yl-ethylcarbamoyl)-piperidin-1-yl]-ethylsulfanylmethyl}-phosphonic acid] showed an IC50 of less than 1000 nM. Work on COc1ccccc1CC(=O)N[C@@H](CSCP(=O)(O)O)C(=O)N1CCCC[C@H]1C(=O)N[C@@H](Cc1ccc2ccccc2c1)C(N)=O [Compound 58, {3-[2-(1-Carbamoyl-2-naphthalen-2-yl-ethylcarbamoyl)-piperidin-1-yl]-2-[2-(2-methoxy-phenyl)-acetylamino]-3-oxo-propylsulfanylmethyl}-phosphonicacid] yielded an IC50 of less than 1000 nM. NC(=O)[C@H](Cc1ccc2ccccc2c1)NC(=O)[C@@H]1CCCCN1C(=O)[C@H](CSCP(=O)(O)O)NC(=O)OCc1ccccc1 [Compound 31, {2-Benzyloxycarbonylamino-3-[2-(1-carbamoyl-2-naphthalen-2-yl-ethylcarbamoyl)-piperidin-1-yl]-3-oxo-propylsulfanylmethyl}-phosphonic acid] gave an IC50 of less than 1000 nM. Cc1csc(C(Cc2ccc3ccccc3c2)NC(=O)[C@@H]2CCCCN2C(=O)CSCP(=O)(O)O)n1 (stereo partly drawn) [Compound 74, (2-{2-[1-(4-Methyl-thiazol-2-yl)-2-naphthalen-2-yl-ethylcarbamoyl]-piperidin-1-yl}-2-oxo-ethylsulfanylmethyl)-phosphonic acid] was tested, and the IC50 was 1000 to 10000 nM. With CC(=O)N[C@@H](CSCP(=O)(O)O)C(=O)N1CCCC[C@H]1C(=O)N[C@@H](Cc1ccc2ccccc2c1)C(N)=O [Compound 30, {2-Acetylamino-3-[2-(1-carbamoyl-2-naphthalen-2-yl-ethylcarbamoyl)-piperidin-1-yl]-3-oxo-propylsulfanylmethyl}-phosphonic acid] the IC50 was 1000 to 10000 nM. O=C(NC(Cc1ccc2ccccc2c1)c1nnco1)[C@@H]1CCCCN1C(=O)CSCP(=O)(O)O (stereo partly drawn) [Compound 75, {2-[2-(2-Naphthalen-2-yl-1-[1,3,4]oxadiazol-2-yl-ethylcarbamoyl)-piperidin-1-yl]-2-oxo-ethylsulfanylmethyl}-phosphonic acid] showed an IC50 of less than 1000 nM. NC(=O)[C@H](Cc1ccc2ccccc2c1)NC(=O)[C@@H]1CCCCN1C(=O)[C@H](CSCP(=O)(O)O)NC(=O)c1cc2ccccc2o1 [Compound 40, {2-[(Benzofuran-2-carbonyl)-amino]-3-[2-(1-carbamoyl-2-naphthalen-2-yl-ethylcarbamoyl)-piperidin-1-yl]-3-oxo-propylsulfanylmethyl}-phosphonicacid] gave an IC50 of 1000 to 10000 nM. With CNC(=O)CC(SCP(=O)(O)O)C(=O)N1CCCC[C@H]1C(=O)N[C@@H](Cc1ccc2ccccc2c1)C(N)=O (mixture of isomers) [Compound 69, {2-[2-(1-Carbamoyl-2-naphthalen-2-yl-ethylcarbamoyl)-piperidin-1-yl]-1-methylcarbamoylmethyl-2-oxo-ethylsulfanylmethyl}-phosphonic acid] the IC50 was 1000 to 10000 nM. In the case of CC(=O)N[C@@H](Cc1csc2ccccc12)C(=O)N[C@@H](CSCP(=O)(O)O)CN1CCCC[C@H]1C(=O)N[C@@H](Cc1ccc2ccccc2c1)C(N)=O [Compound 25, {2-(2-Acetylamino-3-benzo[b]thiophen-3-yl-propionylamino)-3-[2-(1-carbamoyl-2-naphthalen-2-yl-ethylcarbamoyl)-piperidin-1-yl]-propylsulfanylmethyl}-phosphonicacid], the IC50 is reported as less than 1000 nM. With NC(=O)[C@H](Cc1ccc2ccccc2c1)NC(=O)[C@@H]1CCCCN1C(=O)[C@H](CSCP(=O)(O)O)NS(=O)(=O)c1ccccc1 [Compound 48, {2-Benzenesulfonylamino-3-[2-(1-carbamoyl-2-naphthalen-2-yl-ethylcarbamoyl)-piperidin-1-yl]-3-oxo-propylsulfanylmethyl}-phosphonic acid] the IC50 was less than 1000 nM. Work on O=C(NC(Cc1ccc2ccccc2c1)c1nnc[nH]1)[C@@H]1CCCCN1C(=O)CSCP(=O)(O)O (stereo partly drawn) [Compound 76, (2-{2-[2-Naphthalen-2-yl-1-(4H-[1,2,4]triazol-3-yl)-ethylcarbamoyl]-piperidin-1-yl}-2-oxo-ethylsulfanylmethyl)-phosphonic acid] yielded an IC50 of less than 1000 nM. Work on CC(C)(C)NC(=O)[C@H](Cc1ccc2ccccc2c1)NC(=O)[C@@H]1CCCCN1C(=O)CSCP(=O)(O)O [Compound 63, {2-[2-(1-tert-Butylcarbamoyl-2-naphthalen-2-yl-ethylcarbamoyl)-piperidin-1-yl]-2-oxo-ethylsulfanylmethyl}-phosphonicacid] yielded an IC50 of less than 1000 nM. For CC(=O)N[C@@H](Cc1csc2ccccc12)C(=O)N[C@@H](CSCP(=O)(O)O)C(=O)N(C)NC(=O)N[C@@H](Cc1ccc2ccccc2c1)C(N)=O [Compound 27, Ac-Bta-Cys(CH2—P(O)(OH)2)-NMeazaGly-2Nal-NH2], the IC50 was less than 1000 nM. NC(=O)[C@H](Cc1ccc2ccccc2c1)NC(=O)[C@@H]1CCCCN1C(=O)CCSCP(=O)(O)O [Compound 29, {3-[2-(1-Carbamoyl-2-naphthalen-2-yl-ethylcarbamoyl)-piperidin-1-yl]-3-oxo-propylsulfanylmethyl}-phosphonic acid] gave an IC50 of less than 1000 nM. Compound COc1cccc(CC(=O)N[C@@H](CSCP(=O)(O)O)C(=O)N2CCCC[C@H]2C(=O)N[C@@H](Cc2ccc3ccccc3c2)C(N)=O)c1 [Compound 61, {3-[2-(1-Carbamoyl-2-naphthalen-2-yl-ethylcarbamoyl)-piperidin-1-yl]-2-[2-(3-methoxy-phenyl)-acetylamino]-3-oxo-propylsulfanylmethyl}-phosphonicacid] has an IC50 of less than 1000 nM.
